From paper PMC9436915, “Tetrahedral framework nucleic acids‐based delivery promotes intracellular transfer of healing peptides and accelerates diabetic would healing” (Cell Proliferation, 2022)
Where a SMILES comes first, the peptide text is derived from it.

Columns and labels:
trypsin = assay: Enzyme stability of peptide with trypsin; format: in vitro ADME; details: 37 °C, during 1.5 h, UV 205 nm
Procedure: As to the enzyme stability of peptide, equal amount of peptide and p@FNA were treated with trypsin and incubated in 37 °C for 1.5, 3, and 6 h. The remaining amount of peptide was measured by UV spectrophotometer (205 nm). As to enzyme stability of tFNA, equal amount of tFNA and p@FNA were treated with DNase I for 1 min. After neutralization, samples were examined by 6%PAGE at 60 V for 80 min.

HUVEC = assay: Tube formation assay on Matrigel; format: cell-based; details: inhibitor+p@tFNA group; n = 3
Procedure: (§1) HUVECs under diabetic microenvironment were induced by incubation with 200 μg/ml AGEs (Bioss, Beijing, China) for 24 h. Cells were then treated with peptides or p@FNA (125 nM) for subsequent experiments.
The formation of blood vessel‐like structures in vitro was observed by tube formation assay. Cells were pre‐incubated with AGEs for 24 h and subsequently treated with peptide or p@FNA for another 24 h. Subsequently, 100 μl of HUVEC (1–1.5 × 10^5 cells/ml) were seeded on Matrigel (Corning, NY) in 96‐well plates. Images were taken after 6 h. Statistical analysis of tube formation was performed by Image J.

VEGFA = assay: Western blotting, VEGFA protein; format: cell-based; details: inhibitor plus p@tFNA treatment, n = 3
Procedure: as §1
(§2) The expression of β‐actin, VEGFA, MMP‐9, ERK1/2 and p‐ERK1/2 was detected by western blotting. The total protein of the sample was extracted by whole cell lysis method. The target protein was separated by 10% SDS‐PAGE and transferred to PVDF membrane. The bands were blocked in 5% BSA for 1 h and then incubated with primary antibodies against β‐actin (1:5000, PMK058S, BioPM, Wuhan, China), VEGFA (ab214424, Abcam, Cambridge, UK), MMP‐9 (ab76003, Abcam, Cambridge, UK), ERK1/2 (1:1000, CST, #4370, MA) and p‐ERK1/2 (1:2000, CST, #4370, MA) overnight at 4°C. The next day, PVDF membranes were rewarmed and incubated with secondary antibodies for 1 h. Bands were washed three times with TBST. The final exposure was performed in a Bio‐Rad chemiluminometry.

p-ERK1/2 = assay: Western blotting, ERK1/2 phosphorylation; format: cell-based; details: inhibitor plus p@tFNA treatment, n = 3
Procedure: as §1, §2

Row | SMILES | Stability to trypsin (in words) (trypsin) | Tube formation after ERK1/2 inhibition: branching intervals (HUVEC) | Tube formation after ERK1/2 inhibition: branching length (HUVEC) | Tube formation after ERK1/2 inhibition: junctions (HUVEC) | Tube formation after ERK1/2 inhibition: meshes (HUVEC) | Tube formation after ERK1/2 inhibition: nodes (HUVEC) | Tube formation after ERK1/2 inhibition: total length (HUVEC) | Tube formation after ERK1/2 inhibition: total mesh area (HUVEC) | VEGFA expression after ERK1/2 inhibitor (VEGFA) | p-ERK1/2 expression after ERK1/2 inhibitor (p-ERK1/2)
1 | C[C@@H](O)[C@H](NC(=O)[C@H](CCCNC(=N)N)NC(=O)CNC(=O)[C@H](CCC(=O)O)NC(=O)[C@@H](N)CCCNC(=N)N)C(=O)O [peptide] (H-REGRT-OH) | rapid decomposition |  |  |  |  |  |  |  |  | 
2 | Cn1nccc1Nc1nccc(-c2cc3c(s2)C(C)(C)N(CCN2CCOCC2)C3=O)n1 [LY3214996] |  | 0.49 fold | 0.25 fold | 0.19 fold | 0.13 fold | 0.20 fold | 0.35 fold | 0.02 fold | 0.59 fold | 0.69 fold
